# Results published in ChEMBL document CHEMBL1201862, “PubChem BioAssay data set” (2004).
# The source made the active and inactive calls.
# What was measured:
# [1] = biological target: Disintegrin and metalloproteinase domain-containing protein 17 (Homo sapiens, UniProt P78536); assay: exosite inhibitors of ADAM17, dose response, biochemical (AID 743260)
# [2] = inhibition of ADAM10 peptide cleavage – biochemical, FRET peptide substrate, recombinant human ADAM10, selectivity assay for ADAM17 exosite inhibitor project, dose response (AID 743259);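 further: ADAM10 enzyme cleaving a FRET peptide substrate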
# [3] = biological target: NAD-dependent protein deacylase sirtuin-5, mitochondrial (Homo sapiens, UniProt Q9NXA8); assay: sirtuin-5 deacylation blockers, concentration series – biochemical, fluorescence imaging, cherry-pick, set 5, dose response (AID 720591);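 further: desuccinylation of succinyl peptide AMC substrate read as fluorescence after trypsin release; potency of inhibitors that lower fluorescence and may act on trypsin instead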
# NAD-dependent protein deacylase sirtuin-5, mitochondrial, sequence (Q9NXA8 whole entry): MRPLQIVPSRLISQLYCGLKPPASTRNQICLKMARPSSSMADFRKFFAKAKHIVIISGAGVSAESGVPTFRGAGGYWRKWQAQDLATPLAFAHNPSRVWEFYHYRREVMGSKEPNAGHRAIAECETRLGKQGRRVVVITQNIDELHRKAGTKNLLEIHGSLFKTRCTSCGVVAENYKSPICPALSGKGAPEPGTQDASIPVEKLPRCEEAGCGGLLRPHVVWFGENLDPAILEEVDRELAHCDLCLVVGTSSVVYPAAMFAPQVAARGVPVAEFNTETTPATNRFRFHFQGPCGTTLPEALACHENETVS
# [4] = biological target: Induced myeloid leukemia cell differentiation protein Mcl-1 (Homo sapiens, UniProt Q07820); format: functional
# Nonstructural protein 1 = Nonstructural protein 1 (Influenza A virus, UniProt Q194T2); format: functional, Influenza A virus (A/California/07/2009(H1N1))
# [5] = biological target: T1, RNA-editing ligase 1, mitochondrial (Trypanosoma brucei brucei, UniProt P86926); assay: inhibition of trypanosome RNA editing ligase – biochemical, fluorescence, Trypanosoma brucei, dose response (AID 1117295); format: functional
# T1 sequence (P86926 whole entry): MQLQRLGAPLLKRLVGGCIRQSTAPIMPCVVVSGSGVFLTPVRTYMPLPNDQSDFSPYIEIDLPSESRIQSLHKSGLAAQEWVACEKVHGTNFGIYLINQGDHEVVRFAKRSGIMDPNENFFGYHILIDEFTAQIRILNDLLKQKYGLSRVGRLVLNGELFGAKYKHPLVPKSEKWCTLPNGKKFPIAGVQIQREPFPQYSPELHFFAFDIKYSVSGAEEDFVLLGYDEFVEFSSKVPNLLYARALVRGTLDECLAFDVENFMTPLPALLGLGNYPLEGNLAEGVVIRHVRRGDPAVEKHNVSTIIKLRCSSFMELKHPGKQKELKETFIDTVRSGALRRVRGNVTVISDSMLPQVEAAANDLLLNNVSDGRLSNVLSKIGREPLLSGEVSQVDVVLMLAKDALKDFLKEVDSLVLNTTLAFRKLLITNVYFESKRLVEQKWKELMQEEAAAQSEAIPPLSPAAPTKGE
# [6] = growth inhibition of yeast DHODH-expressing 3D7 parasites – SYBR Green, dry powder samples, dose response (AID 1159570); format: functional, cell-based;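 further: parasite growth measured after 72 hours of compound exposure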
# [7] = toxicity to human HepG2 hepatoma cells – cell-based, plate reader, dry powder samples, cytotoxicity control, dose response (AID 1159569); format: functional;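 further: inhibitor potency with signal falling toward the positive control level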
# [8] = P. falciparum Dd2 growth inhibitors, dose response, SYBR Green, cherry-picked samples (AID 1159567); format: functional, cell-based
# [9] = Dd2 malaria parasite growth inhibition potency – SYBR Green, dry powder samples, dose response (AID 1159566); format: functional, cell-based;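 further: potency for growth inhibition with lower SYBR green DNA signal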
# [10] = toxicity to human hepatoma HepG2 cells – cell-based, cherry-picked samples, cytotoxicity control, dose response (AID 1159577); format: functional
# [11] = growth inhibition of PfATP4-mutant resistant parasites – NITD609-resistant line, SYBR Green, dry powder, dose response (AID 1159571); format: functional, cell-based;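 further: parasites synchronized at ring stage by sorbitol before testing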
# [12] = luciferase reporter signal suppression in cells – H4 neuroglioma cells, luminescence, dose response (AID 1990); format: functional, cell-based
# [13] = Luminescence Cell-Based Dose Response HTS to Identify Inhibitors of 5'UTR Stem-Loop Driven Prion Protein mRNA Translation in H4 Neuroglioblastoma Cells. [Related pubchem assays: 1827 (Project Summary), 1813 (Primary HTS)]; format: functional
# [14] = alpha-synuclein stem-loop luciferase translation blockers – H4 neuroglioma cells, luminescence, confirmation (AID 1988); format: functional, cell-based
# Paired box protein Pax-8 = Paired box protein Pax-8 (Homo sapiens, UniProt Q06710); assay: PAX8 transcriptional activity inhibition in RMG-I – RMG-I cells, luciferase, cherry-pick, dose response (AID 687027); format: functional, cell-based;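 further: luciferase reporter driven by Pax8 target thyroperoxidase promoter measured by SteadyGlo luminescence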
# Paired box protein Pax-8, sequence (Q06710 whole entry): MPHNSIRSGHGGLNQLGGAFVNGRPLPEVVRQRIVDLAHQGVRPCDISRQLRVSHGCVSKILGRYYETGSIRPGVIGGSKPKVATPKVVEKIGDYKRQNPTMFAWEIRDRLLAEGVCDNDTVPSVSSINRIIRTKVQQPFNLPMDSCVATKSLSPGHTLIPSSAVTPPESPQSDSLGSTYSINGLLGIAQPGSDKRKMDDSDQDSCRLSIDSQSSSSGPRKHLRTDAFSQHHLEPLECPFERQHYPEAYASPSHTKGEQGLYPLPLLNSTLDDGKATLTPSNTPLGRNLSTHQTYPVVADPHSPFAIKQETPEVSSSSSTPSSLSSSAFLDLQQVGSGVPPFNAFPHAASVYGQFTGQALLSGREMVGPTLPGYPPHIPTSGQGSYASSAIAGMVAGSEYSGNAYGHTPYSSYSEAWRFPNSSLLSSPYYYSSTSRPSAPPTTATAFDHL
# [15] = OVCAR-3 cell viability loss – plate reader, dry powder samples, PAX8 inhibitor project, dose response (AID 743044); format: functional, cell-based
# [16] = IGROV1 cell killing – plate reader, dry powder samples, PAX8 inhibitor project, dose response (AID 743043); format: functional, cell-based; conditions: IGROV-1
# [17] = OVCAR8 cell viability loss – plate reader, dry powder samples, PAX8 project, dose response (AID 743197); format: functional, cell-based; conditions: OVCAR-8
# [18] = biological target: Peroxisome proliferator-activated receptor gamma/Nuclear receptor coactivator 3 (Homo sapiens, UniProt P37231); assay: TR-FRET dose response biochemical High Throughput Screening assay for agonists of the steroid receptor coactivator 3 (SRC-3) recruitment by the peroxisome proliferator-activated receptor gamma (PPAR gamma): non-selective agonists. [Related pubchem assays: 1301 (Confirmation screen.), 1048 (Primary screen.)]; format: functional
# [19] = biological target: Peroxisome proliferator-activated receptor gamma/Nuclear receptor coactivator 2 (Homo sapiens, UniProt P37231); assay: TR-FRET dose response biochemical High Throughput Screening assay for agonists of the steroid receptor coactivator 2 (SRC-2) recruitment by the peroxisome proliferator-activated receptor gamma (PPAR gamma): non-selective agonists. [Related pubchem assays: 1297, 1032 ]; format: functional
# Major prion protein = Major prion protein (Homo sapiens, UniProt P04156); format: functional, cell-based
# [20] = reduced cellular PGC1a acetyl-lysine signal – cell-based, cherry-picked samples, dose response (AID 720514); format: functional;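 further: potency may reflect raised or lowered acetylation signal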
# [21] = T. cruzi growth inhibition in host cells, dose response, cell-based, plate reader, dry powder, set 2 (AID 652275); format: functional
# [22] = biological target: Peroxisome proliferator-activated receptor gamma/Nuclear receptor corepressor 2 (Homo sapiens, UniProt P37231+Q9Y618); assay: Counterscreen for NR2E3 inverse agonists: TR-FRET-based biochemical high throughput dose response assay to identify inverse agonists of the interaction between peroxisome proliferator-activated receptor gamma (PPARg) and nuclear receptor co-repressor 2 (NCOR2).; format: functional
# Peroxisome proliferator-activated receptor gamma/Nuclear receptor corepressor 2, sequence (P37231 whole entry): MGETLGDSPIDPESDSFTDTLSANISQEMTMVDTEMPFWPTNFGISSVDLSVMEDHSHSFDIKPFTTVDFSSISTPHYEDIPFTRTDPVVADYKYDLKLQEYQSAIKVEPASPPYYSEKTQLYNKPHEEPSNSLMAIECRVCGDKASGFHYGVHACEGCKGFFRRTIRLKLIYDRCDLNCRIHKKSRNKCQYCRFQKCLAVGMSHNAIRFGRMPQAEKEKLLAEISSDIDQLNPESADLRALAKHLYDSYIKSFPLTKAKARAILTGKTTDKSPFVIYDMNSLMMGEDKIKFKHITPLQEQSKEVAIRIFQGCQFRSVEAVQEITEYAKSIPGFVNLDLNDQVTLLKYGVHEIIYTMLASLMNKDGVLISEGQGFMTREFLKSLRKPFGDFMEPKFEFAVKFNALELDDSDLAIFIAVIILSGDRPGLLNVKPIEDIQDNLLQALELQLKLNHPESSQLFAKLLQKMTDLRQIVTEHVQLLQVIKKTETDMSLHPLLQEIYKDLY
# Peroxisome proliferator-activated receptor gamma/Nuclear receptor corepressor 2, sequence (Q9Y618 whole entry): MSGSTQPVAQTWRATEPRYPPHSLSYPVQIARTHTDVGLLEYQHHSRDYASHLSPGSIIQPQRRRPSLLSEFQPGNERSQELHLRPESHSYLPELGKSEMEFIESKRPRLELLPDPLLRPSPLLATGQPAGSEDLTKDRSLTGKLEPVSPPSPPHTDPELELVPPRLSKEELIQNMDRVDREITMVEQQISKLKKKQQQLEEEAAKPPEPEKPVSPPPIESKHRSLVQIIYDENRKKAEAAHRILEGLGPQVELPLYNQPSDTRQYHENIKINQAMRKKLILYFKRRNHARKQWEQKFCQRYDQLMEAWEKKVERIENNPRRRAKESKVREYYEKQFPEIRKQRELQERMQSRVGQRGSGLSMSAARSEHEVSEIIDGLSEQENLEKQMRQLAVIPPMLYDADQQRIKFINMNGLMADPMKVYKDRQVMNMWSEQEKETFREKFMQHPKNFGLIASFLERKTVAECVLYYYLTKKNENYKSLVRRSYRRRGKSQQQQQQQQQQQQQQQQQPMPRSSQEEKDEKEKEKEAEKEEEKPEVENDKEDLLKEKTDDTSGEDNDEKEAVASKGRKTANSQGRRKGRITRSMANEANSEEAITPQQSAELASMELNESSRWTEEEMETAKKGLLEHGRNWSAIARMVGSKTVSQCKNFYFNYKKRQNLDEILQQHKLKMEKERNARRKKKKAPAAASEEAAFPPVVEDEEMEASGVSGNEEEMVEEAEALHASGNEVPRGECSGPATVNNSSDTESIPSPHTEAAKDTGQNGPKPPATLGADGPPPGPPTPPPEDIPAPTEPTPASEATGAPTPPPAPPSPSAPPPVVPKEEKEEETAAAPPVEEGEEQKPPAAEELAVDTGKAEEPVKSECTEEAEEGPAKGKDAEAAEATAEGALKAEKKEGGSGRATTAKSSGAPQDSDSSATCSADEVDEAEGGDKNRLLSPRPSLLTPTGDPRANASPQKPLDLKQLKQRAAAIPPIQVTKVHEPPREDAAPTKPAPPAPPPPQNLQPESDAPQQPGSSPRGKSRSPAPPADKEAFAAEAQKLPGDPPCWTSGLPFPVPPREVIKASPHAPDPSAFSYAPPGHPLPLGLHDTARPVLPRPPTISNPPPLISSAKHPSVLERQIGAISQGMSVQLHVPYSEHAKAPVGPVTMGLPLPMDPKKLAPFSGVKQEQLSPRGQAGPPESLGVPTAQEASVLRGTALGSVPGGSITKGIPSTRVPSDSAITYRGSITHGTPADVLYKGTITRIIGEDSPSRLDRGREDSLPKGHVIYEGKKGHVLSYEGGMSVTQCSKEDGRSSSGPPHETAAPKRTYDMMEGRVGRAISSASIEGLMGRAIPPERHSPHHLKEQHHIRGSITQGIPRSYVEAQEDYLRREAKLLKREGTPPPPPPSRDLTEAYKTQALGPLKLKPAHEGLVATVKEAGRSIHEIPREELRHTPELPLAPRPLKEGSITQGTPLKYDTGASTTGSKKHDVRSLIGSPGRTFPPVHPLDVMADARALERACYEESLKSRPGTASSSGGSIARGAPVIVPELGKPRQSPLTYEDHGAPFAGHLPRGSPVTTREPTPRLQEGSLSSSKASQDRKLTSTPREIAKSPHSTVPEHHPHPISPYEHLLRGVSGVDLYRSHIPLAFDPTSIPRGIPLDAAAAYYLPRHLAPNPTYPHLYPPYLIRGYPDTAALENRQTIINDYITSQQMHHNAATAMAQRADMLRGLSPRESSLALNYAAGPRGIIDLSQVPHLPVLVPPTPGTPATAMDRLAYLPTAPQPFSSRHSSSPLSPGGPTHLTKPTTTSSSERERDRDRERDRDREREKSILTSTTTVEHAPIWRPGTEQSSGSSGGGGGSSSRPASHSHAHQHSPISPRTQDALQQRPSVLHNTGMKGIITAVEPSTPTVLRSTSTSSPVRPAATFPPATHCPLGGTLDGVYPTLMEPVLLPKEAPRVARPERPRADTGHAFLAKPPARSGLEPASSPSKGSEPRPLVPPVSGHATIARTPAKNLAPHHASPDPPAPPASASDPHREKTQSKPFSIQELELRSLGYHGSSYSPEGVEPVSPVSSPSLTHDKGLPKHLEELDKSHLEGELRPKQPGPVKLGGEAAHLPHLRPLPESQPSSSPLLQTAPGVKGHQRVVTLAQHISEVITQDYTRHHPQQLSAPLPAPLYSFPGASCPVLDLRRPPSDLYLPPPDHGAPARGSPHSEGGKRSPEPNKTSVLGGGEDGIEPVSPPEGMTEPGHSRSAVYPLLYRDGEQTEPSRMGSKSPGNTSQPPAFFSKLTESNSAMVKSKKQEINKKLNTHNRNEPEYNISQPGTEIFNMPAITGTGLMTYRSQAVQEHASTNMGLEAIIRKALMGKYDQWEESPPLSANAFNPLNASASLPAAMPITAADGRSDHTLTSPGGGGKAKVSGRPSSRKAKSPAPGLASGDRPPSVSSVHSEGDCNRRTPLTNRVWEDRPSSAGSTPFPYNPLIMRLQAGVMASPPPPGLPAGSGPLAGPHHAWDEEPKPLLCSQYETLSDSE
# [23] = biological target: Photoreceptor-specific nuclear receptor (Homo sapiens, UniProt Q9Y5X4); assay: ligands suppressing NR2E3 nuclear receptor activity – biochemical, TR-FRET, dose response (AID 463256); format: functional
# Photoreceptor-specific nuclear receptor, sequence (Q9Y5X4 whole entry): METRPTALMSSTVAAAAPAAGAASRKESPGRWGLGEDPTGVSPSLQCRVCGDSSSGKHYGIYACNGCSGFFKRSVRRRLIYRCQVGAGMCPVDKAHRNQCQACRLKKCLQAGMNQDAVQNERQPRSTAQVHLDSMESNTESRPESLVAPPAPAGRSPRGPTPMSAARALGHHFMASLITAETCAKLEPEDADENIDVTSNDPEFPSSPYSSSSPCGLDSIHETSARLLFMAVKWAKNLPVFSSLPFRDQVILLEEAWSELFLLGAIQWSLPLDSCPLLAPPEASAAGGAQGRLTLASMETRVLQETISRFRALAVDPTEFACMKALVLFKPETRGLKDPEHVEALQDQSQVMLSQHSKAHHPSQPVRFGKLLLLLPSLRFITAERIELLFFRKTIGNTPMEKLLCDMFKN
# Kallikrein-7 = Kallikrein-7 (Homo sapiens, UniProt P49862); assay: Fluorescence Intensity-based biochemical primary high throughput dose response assay to identify activators of kallikrein-7 (K7) zymogen.
# [24] = biological target: T2, DNA repair protein RAD52 homolog (Homo sapiens, UniProt P43351); format: functional, biochemical
# T2 sequence (P43351 whole entry): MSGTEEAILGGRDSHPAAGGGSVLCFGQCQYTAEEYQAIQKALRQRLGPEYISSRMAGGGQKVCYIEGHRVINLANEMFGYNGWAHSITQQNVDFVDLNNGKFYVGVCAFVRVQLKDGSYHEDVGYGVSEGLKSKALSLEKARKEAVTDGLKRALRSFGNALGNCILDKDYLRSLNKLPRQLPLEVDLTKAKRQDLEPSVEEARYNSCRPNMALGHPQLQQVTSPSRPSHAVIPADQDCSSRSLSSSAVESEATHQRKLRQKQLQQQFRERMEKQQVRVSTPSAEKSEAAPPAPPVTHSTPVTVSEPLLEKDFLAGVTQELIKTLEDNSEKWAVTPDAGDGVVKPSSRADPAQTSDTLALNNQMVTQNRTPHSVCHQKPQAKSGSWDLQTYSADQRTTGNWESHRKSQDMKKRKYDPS
# Albumin = Albumin (Bos taurus, UniProt P02769); assay: Counterscreen for inhibitors of T-cell receptor (TCR)-CD3 interaction: Fluorescence-based biochemical high throughput dose response assay to identify inhibitors of T-cell receptor (TCR)-CD3 interaction using a TAMRA-labeled BSA probe.; format: functional
# Disintegrin and metalloproteinase domain-containing protein 17, sequence (P78536 whole entry, the tested form may be a part): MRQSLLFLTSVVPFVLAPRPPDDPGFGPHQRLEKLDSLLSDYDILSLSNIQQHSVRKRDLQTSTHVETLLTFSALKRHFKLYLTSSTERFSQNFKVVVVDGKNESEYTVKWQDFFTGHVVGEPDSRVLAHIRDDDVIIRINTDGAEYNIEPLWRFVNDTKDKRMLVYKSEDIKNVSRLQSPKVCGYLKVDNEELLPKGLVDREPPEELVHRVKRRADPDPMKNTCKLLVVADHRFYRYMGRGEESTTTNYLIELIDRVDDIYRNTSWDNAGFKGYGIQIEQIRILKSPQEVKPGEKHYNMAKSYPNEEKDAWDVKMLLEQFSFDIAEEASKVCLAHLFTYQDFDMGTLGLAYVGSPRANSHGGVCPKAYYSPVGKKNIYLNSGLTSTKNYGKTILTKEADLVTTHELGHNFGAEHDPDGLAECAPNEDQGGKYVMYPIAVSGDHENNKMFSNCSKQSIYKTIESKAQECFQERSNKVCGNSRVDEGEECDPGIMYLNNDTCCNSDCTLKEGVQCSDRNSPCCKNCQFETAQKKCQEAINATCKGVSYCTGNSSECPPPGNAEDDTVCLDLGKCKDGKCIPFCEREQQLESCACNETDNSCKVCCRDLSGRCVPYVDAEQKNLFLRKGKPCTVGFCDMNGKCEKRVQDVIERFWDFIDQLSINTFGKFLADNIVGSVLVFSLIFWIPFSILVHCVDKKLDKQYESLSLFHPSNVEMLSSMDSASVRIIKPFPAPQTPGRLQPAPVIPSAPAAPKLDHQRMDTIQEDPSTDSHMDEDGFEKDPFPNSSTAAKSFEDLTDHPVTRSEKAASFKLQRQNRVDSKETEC
compound,measurement,setting,value
COc1ccc(OC)c(NC(=O)COC(=O)Cc2ccc(-c3ccccc3)cc2)c1,IC50,[1],> 69.5 µM (inactive)
same,IC50,[2],> 69.5 µM (inactive)
Cc1cccc(NC(=O)N2CCCC(CNC(=O)c3ccccc3Cl)C2)c1C (stereo not given),AC50,[3],> 30 µM (inactive)
Cc1n[nH]c(=S)n(NC(=O)/C=C/C(=O)Nn2c(=S)[nH]nc(C)c2=O)c1=O,IC50,[4],4.67 µM (active)
same,IC50,Nonstructural protein 1,7.29 µM (active)
same,IC50,[5],63.6 µM (inactive)
C(=C\c1ccc([C@H]2[C@@H]3CN(Cc4cccnc4)C[C@H]2N3)cc1)/c1ccccc1,AC50,[6],4.3 µM (active)
same,AC50,[7],18.6 µM (active)
same,AC50,[8],2.81 µM (active)
same,AC50,[9],3.79 µM (active)
same,AC50,[10],27.5 µM (active)
same,AC50,[11],3.95 µM (active)
CCOC(=O)c1c(-c2ccccc2)csc1NC(=O)CSc1nncs1,EC50,[12],15.8 µM (active)
same,EC50,[13],> 120 µM (not active)
same,EC50,[14],30.6 µM (active)
same,IC50,[1],> 69.5 µM (inactive)
same,IC50,[2],> 69.5 µM (inactive)
C[C@@H]1CCCCO[C@H](CN(C)Cc2ccc(C(F)(F)F)cc2)[C@@H](C)CN([C@@H](C)CO)C(=O)c2cc(NS(=O)(=O)c3ccc(F)cc3)ccc2O1,AC50,Paired box protein Pax-8,8.57 µM (active)
same,AC50,[15],21.5 µM (active)
same,AC50,[16],31 µM (active)
same,AC50,[17],29.7 µM (active)
C[C@H]1CCCCO[C@H](CN(C)Cc2ccc(C(F)(F)F)cc2)[C@@H](C)CN([C@@H](C)CO)C(=O)c2cc(NS(=O)(=O)c3ccc(Cl)cc3)ccc2O1,AC50,Paired box protein Pax-8,4.73 µM (active)
same,AC50,[16],36 µM (active)
same,AC50,[17],> 70 µM (inactive)
N#CC1=C2SCN(Cc3ccccc3)CN2C(=O)CC1c1cccs1 (stereo not given),EC50,[18],> 79.4 µM (not active)
same,EC50,[19],> 79.4 µM (not active)
same,IC50,Major prion protein,> 138 µM (inactive)
same,IC50,cells,> 138 µM (inactive)
Cc1cc(NC(=O)CSc2nnc3ccc(-c4ccccc4)nn23)no1,AC50,[3],> 30 µM (inactive)
CC1CCCN(CC(=O)N2CCCc3ccccc32)C1.[O-][Cl+3]([O-])([O-])O (stereo not given),AC50,[20],27.1 µM (active)
CC(C)N1C[C@@H](CN(C)Cc2ccc(Cl)cc2)Oc2c(C(=O)Nc3ccnnc3)cccc2C1=O,AC50,[21],0.299 µM (active)
Cc1csc(NC(=O)COc2ccc3c(C)cc(=O)oc3c2)n1,IC50,[22],> 39.8 µM (not active)
same,IC50,[23],7.06 µM (active)
CC(C)N1CC2(CN(Cc3ccc(F)c(F)c3)C2)Oc2c(NC(=O)c3ccncc3)cccc2C1=O,AC50,[21],1.05 µM (active)
Cc1cc(C)c2c(n1)nn1c(NCCN3CCOCC3)cc(C)nc21,EC50,Kallikrein-7,34.8 µM (inactive)
CCN(CC)CCNC(=O)C(=O)NCC1OCCN1S(=O)(=O)c1cccs1 (stereo not given),AC50,[24],29.3 µM (active)
C[C@@H]1CN([C@H](C)CO)C(=O)c2cc(NC(=O)Nc3ccc(F)cc3)ccc2O[C@@H](C)CCCCO[C@H]1CN(C)C(=O)NC1CCCCC1,AC50,Paired box protein Pax-8,6.55 µM (active)
same,AC50,[15],43.1 µM (active)
COCCN1CCn2c(nc3cc(Nc4nnc(C)c5ccccc45)ccc32)C1,AC50,[24],11.9 µM (active)
O=C(Oc1ccc(Oc2ccccc2)cc1)N1CCC(O)CC1,AC50,[3],> 30 µM (inactive)
COc1cccc(-c2cc(C(=O)Nc3cc(C)on3)no2)c1,IC50,[22],> 39.8 µM (not active)
same,IC50,[23],> 39.8 µM (not active)
NCCCC[C@H]1CN=C(S)N1CCCCC1CCCCC1,AC50,[24],10.9 µM (active)
Cc1ccc(CN2C(=O)[C@H]3Cc4c([nH]c5ccccc45)C(C)(C)N3C2=O)cc1,IC50,[1],> 69.5 µM (inactive)
same,IC50,[2],> 69.5 µM (inactive)
COC(=O)C1=C(C)N(Cc2ccc(C(F)(F)F)cc2)C(NCc2ccccc2C(F)(F)F)=NC1c1ccc(Cl)cc1 (stereo not given),IC50,[5],> 96.6 µM (inactive)
OC[C@@H]1CC[C@@H]2O[C@H](CCc3ccc(C#CCc4ccccc4)cc3)[C@H](n3cc(-c4ccccc4)nn3)C[C@@H]2O1,AC50,[6],1.79 µM (active)
same,AC50,[7],> 100 µM (inactive)
same,AC50,[8],1.45 µM (active)
same,AC50,[9],0.879 µM (active)
same,AC50,[11],1.53 µM (active)
O=C(CN1C(=O)NC2(CCCc3ccccc32)C1=O)NCC(F)(F)F (stereo not given),IC50,[22],7.85 µM (active)
same,IC50,[23],8.55 µM (active)
CCC(=O)N1CC[C@@H]2[C@H]1c1cc(Br)ccc1N(C)[C@@H]2CO,AC50,[21],11.7 µM (active)
COc1ccc(C2C3=C(O)CC(C)(C)CC3=NC(C)=C2C(=O)N2CCOCC2)c(OC)c1 (stereo not given),EC50,Kallikrein-7,52.4 µM (inactive)
COC(=O)C1=C(C)N(Cc2cccc(C(F)(F)F)c2)C(NCc2ccccc2C(F)(F)F)=NC1c1cccc(F)c1 (stereo not given),IC50,[5],> 96.6 µM (inactive)
O=C(CSc1nc2ccccc2c(=O)n1-c1ccc(F)c(Cl)c1)Nc1cccc(S(=O)(=O)N2CCOCC2)c1,IC50,Albumin,> 94.2 µM (inactive)
CCCc1cn(CC[C@@H]2CC[C@@H](NS(=O)(=O)c3ccc(-c4ccccc4)cc3)[C@H](CO)O2)nn1,AC50,[6],2.17 µM (active)
same,AC50,[7],37.5 µM (active)
same,AC50,[8],1.7 µM (active)
same,AC50,[9],1.99 µM (active)
same,AC50,[10],23.3 µM (active)
same,AC50,[11],1.82 µM (active)
CC(C)OC(=O)CSc1nc(Cc2ccccc2)nc2ccccc12,IC50,Major prion protein,4.45 µM (active)
same,IC50,cells,> 138 µM (inactive)
